Assay results reported in PubChem BioAssay (NCI).
Values joined by “and” are separate entries in the source; they are usually repeats but may differ in a detail not shown here. Equal entries are not always repeated.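 Method: 48-hour compound exposure of cells in 96-well plates, five concentrations, linear interpolation of endpoints. Abbreviation: GI50, concentration required for 50% inhibition of growth. At the TGI there is no net growth.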

Tests used:
Assay in all cases: inhibition of tumour cell growth, NCI panel, 48 h
TK-10 renal = test system: TK-10 renal
NCI-H460 lung = test system: NCI-H460 lung
UO-31 renal = test system: UO-31 renal
OVCAR-3 ovarian = test system: OVCAR-3 ovarian
RXF 393 renal = test system: RXF 393 renal
HOP-62 NSCLC = test system: HOP-62 NSCLC
MOLT-4 leukemia = test system: MOLT-4 leukemia
KM12 colon = test system: KM12 colon
SF-268 CNS = test system: SF-268 CNS
OVCAR-8 ovarian = test system: OVCAR-8 ovarian

## S=C1OC2C3C4CC5C3C(O1)C1C5C4C21 (stereo not given)
TK-10 renal
  TGI: > 100 µM
NCI-H460 lung
  TGI: > 100 µM
UO-31 renal
  TGI: > 100 µM
OVCAR-3 ovarian
  TGI: > 100 µM
RXF 393 renal
  TGI: > 100 µM
HOP-62 NSCLC
  TGI: > 100 µM
MOLT-4 leukemia
  TGI: > 100 µM
KM12 colon
  TGI: > 100 µM
SF-268 CNS
  TGI: > 100 µM
OVCAR-8 ovarian
  TGI: > 100 µM

## COS(=O)CCOC(=O)c1ccccc1SSc1ccccc1C(=O)OCCS(=O)OC (stereo not given)
TK-10 renal
  TGI: > 100 µM
NCI-H460 lung
  TGI: > 100 µM
UO-31 renal
  TGI: 43.5 µM
OVCAR-3 ovarian
  TGI: 54.5 µM
RXF 393 renal
  TGI: 28 µM
HOP-62 NSCLC
  TGI: > 100 µM
MOLT-4 leukemia
  TGI: 22.8 µM
KM12 colon
  TGI: > 100 µM
SF-268 CNS
  TGI: > 100 µM
OVCAR-8 ovarian
  TGI: 81.2 µM

## OCC1CC2CC1C1(C2)OCCO1 (stereo not given)
TK-10 renal
  TGI: > 100 µM
NCI-H460 lung
  TGI: > 100 µM
UO-31 renal
  TGI: > 100 µM
OVCAR-3 ovarian
  TGI: > 100 µM
RXF 393 renal
  TGI: > 100 µM
HOP-62 NSCLC
  TGI: > 100 µM
MOLT-4 leukemia
  TGI: > 100 µM
KM12 colon
  TGI: > 100 µM
SF-268 CNS
  TGI: > 100 µM
OVCAR-8 ovarian
  TGI: > 100 µM

## Cc1ccc(S(=O)(=O)ON=C2CC(c3ccccc3)N(C)C(c3ccccc3)C2)cc1 (stereo not given)
TK-10 renal
  TGI: 49.1 µM and 48.5 µM
NCI-H460 lung
  TGI: 44.1 µM and 52.7 µM
UO-31 renal
  TGI: 35.3 µM and 49.1 µM
OVCAR-3 ovarian
  TGI: 47.8 µM and 49.4 µM
RXF 393 renal
  TGI: 48 µM and 71.6 µM
HOP-62 NSCLC
  TGI: 68.4 µM and 98.2 µM
MOLT-4 leukemia
  TGI: 53.2 µM and > 100 µM
KM12 colon
  TGI: 34.1 µM
SF-268 CNS
  TGI: 51.8 µM and 51.1 µM
OVCAR-8 ovarian
  TGI: 35.6 µM and 36.5 µM

## CN1C=CN(Cc2ccc(-c3ccccn3)nc2)[CH-]1.CN1C=CN(Cc2ccc(-c3ccccn3)nc2)[CH-]1.[Au+3]
TK-10 renal
  GI50: 5.09 µM
  TGI: 27 µM
NCI-H460 lung
  GI50: 3.37 µM
  TGI: > 100 µM
UO-31 renal
  GI50: 22 µM
  TGI: > 73.6 µM
OVCAR-3 ovarian
  GI50: 2.41 µM
  TGI: 13.8 µM
RXF 393 renal
  GI50: 1.88 µM
  TGI: 17.8 µM
HOP-62 NSCLC
  GI50: 8.31 µM
  TGI: 25.8 µM
MOLT-4 leukemia
  GI50: 1.1 µM
  TGI: 12.4 µM
KM12 colon
  GI50: 1.89 µM
  TGI: > 38.2 µM
SF-268 CNS
  GI50: 5.91 µM
  TGI: 26.2 µM
OVCAR-8 ovarian
  GI50: 3.19 µM
  TGI: > 100 µM

## COc1cc(Nc2ncc(-c3ccccc3)o2)cc(OC)c1OC
TK-10 renal
  GI50: 1.62 µM
  TGI: > 25 µM
NCI-H460 lung
  GI50: 0.161 µM
  TGI: > 25 µM
UO-31 renal
  GI50: 1.84 µM
  TGI: > 25 µM
OVCAR-3 ovarian
  GI50: 3.94 µM
  TGI: 24.9 µM
RXF 393 renal
  GI50: 0.77 µM
  TGI: 17.4 µM
HOP-62 NSCLC
  GI50: 3.47 µM
  TGI: > 25 µM
MOLT-4 leukemia
  GI50: 4.36 µM
  TGI: > 25 µM
KM12 colon
  GI50: 0.152 µM
  TGI: > 25 µM
SF-268 CNS
  GI50: 4.73 µM
  TGI: > 25 µM
OVCAR-8 ovarian
  GI50: 8.3 µM
  TGI: > 25 µM

## C[Si](C)(C)[C@@]1([Se]c2ccccc2)CC[C@@H]1C(=O)c1ccccc1
TK-10 renal
  TGI: > 100 µM
NCI-H460 lung
  TGI: > 100 µM
UO-31 renal
  TGI: > 100 µM
OVCAR-3 ovarian
  TGI: > 100 µM
RXF 393 renal
  TGI: > 100 µM
HOP-62 NSCLC
  TGI: > 100 µM
MOLT-4 leukemia
  TGI: 75.1 µM
KM12 colon
  TGI: > 100 µM
SF-268 CNS
  TGI: > 100 µM
OVCAR-8 ovarian
  TGI: > 100 µM

## Cc1cc(I)cc(CN(C)CCCCN2CCCC2)c1O
TK-10 renal
  GI50: 20.8 µM
  TGI: 50.7 µM
NCI-H460 lung
  GI50: 17.3 µM
  TGI: 45.9 µM
UO-31 renal
  GI50: 28.2 µM
  TGI: > 100 µM
OVCAR-3 ovarian
  GI50: 33.5 µM
  TGI: > 100 µM
RXF 393 renal
  GI50: 11.8 µM
  TGI: 31.8 µM
HOP-62 NSCLC
  GI50: 16.4 µM
  TGI: 33.9 µM
MOLT-4 leukemia
  GI50: 15.5 µM
  TGI: 33.4 µM
KM12 colon
  GI50: 19.8 µM
  TGI: 53.9 µM
SF-268 CNS
  GI50: 18.1 µM
  TGI: 55.7 µM
OVCAR-8 ovarian
  GI50: 37.2 µM
  TGI: > 100 µM

## Cc1ccc(Nc2ccnc(Nc3cccc(C(N)=O)c3)n2)cc1O
TK-10 renal
  GI50: 6.39 µM
  TGI: 17.6 µM
NCI-H460 lung
  GI50: 11.4 µM
  TGI: > 25 µM
UO-31 renal
  GI50: 0.846 µM
  TGI: 11.9 µM
OVCAR-3 ovarian
  GI50: 6.65 µM
  TGI: > 25 µM
RXF 393 renal
  GI50: 0.895 µM
  TGI: 4.84 µM
HOP-62 NSCLC
  GI50: 5.5 µM
  TGI: > 19 µM
MOLT-4 leukemia
  GI50: 10.5 µM
  TGI: > 25 µM
KM12 colon
  GI50: 7.27 µM
  TGI: > 25 µM
SF-268 CNS
  GI50: 3.84 µM
  TGI: > 17.7 µM
OVCAR-8 ovarian
  GI50: 6.51 µM
  TGI: > 25 µM

## CC12CC(=O)NN=C1c1ccccc1C2 (stereo not given)
TK-10 renal
  TGI: > 100 µM
NCI-H460 lung
  TGI: > 100 µM
UO-31 renal
  TGI: > 100 µM
OVCAR-3 ovarian
  TGI: > 100 µM
RXF 393 renal
  TGI: > 100 µM
HOP-62 NSCLC
  TGI: > 100 µM
MOLT-4 leukemia
  TGI: > 100 µM
KM12 colon
  TGI: > 100 µM
SF-268 CNS
  TGI: > 100 µM
OVCAR-8 ovarian
  TGI: > 100 µM

## O=C(O)C1C2CC3CC2CC31 (stereo not given)
TK-10 renal
  TGI: > 100 µM
NCI-H460 lung
  TGI: > 100 µM
UO-31 renal
  TGI: > 100 µM
OVCAR-3 ovarian
  TGI: > 100 µM
RXF 393 renal
  TGI: > 100 µM
HOP-62 NSCLC
  TGI: > 100 µM
MOLT-4 leukemia
  TGI: > 100 µM
KM12 colon
  TGI: > 100 µM
SF-268 CNS
  TGI: > 100 µM
OVCAR-8 ovarian
  TGI: > 100 µM

## O=c1c2c(=NCCCN3CCCC3)cc3c(=O)n(CCCN4CCCC4)c(=O)c4c(NCCCN5CCCC5)cc(c(O)n1CCCN1CCCC1)c2c4-3
TK-10 renal
  GI50: 2.22 µM
  TGI: 8.65 µM
NCI-H460 lung
  GI50: 1.78 µM
  TGI: 4.01 µM
UO-31 renal
  GI50: 4.5 µM
  TGI: 22 µM
OVCAR-3 ovarian
  GI50: 2.88 µM
  TGI: 7.03 µM
RXF 393 renal
  GI50: 2.83 µM
  TGI: 8.23 µM
HOP-62 NSCLC
  GI50: 1.42 µM
  TGI: 4.54 µM
MOLT-4 leukemia
  GI50: 6.63 µM
  TGI: > 100 µM
KM12 colon
  GI50: 3.27 µM
  TGI: 12.7 µM
SF-268 CNS
  GI50: 2.23 µM
  TGI: 8.66 µM
OVCAR-8 ovarian
  GI50: 1.74 µM
  TGI: 12.3 µM

## CC(Cl)CC(=O)Nc1ccc2c(c1)oc(=O)c1cc(NC(=O)CC(C)Cl)ccc12 (stereo not given)
TK-10 renal
  GI50: 10.1 µM
  TGI: 23.8 µM
NCI-H460 lung
  GI50: 13.7 µM
  TGI: 40.9 µM
UO-31 renal
  GI50: 13.3 µM
  TGI: 69.4 µM
OVCAR-3 ovarian
  GI50: 14.3 µM
  TGI: 31.1 µM
RXF 393 renal
  GI50: 0.762 µM
  TGI: 22 µM
HOP-62 NSCLC
  GI50: 11.5 µM
  TGI: 28.2 µM
MOLT-4 leukemia
  GI50: 10.2 µM
  TGI: 34.4 µM
KM12 colon
  GI50: 7.44 µM
  TGI: 24.4 µM
SF-268 CNS
  GI50: 10.1 µM
  TGI: 33.3 µM
OVCAR-8 ovarian
  GI50: 10.4 µM
  TGI: 28.8 µM

## CCCC/C(C)=N/NC(N)=S
TK-10 renal
  TGI: > 100 µM
NCI-H460 lung
  TGI: > 100 µM
UO-31 renal
  TGI: > 100 µM
OVCAR-3 ovarian
  TGI: > 100 µM
RXF 393 renal
  TGI: > 100 µM
HOP-62 NSCLC
  TGI: > 100 µM
MOLT-4 leukemia
  TGI: > 100 µM
KM12 colon
  TGI: > 100 µM
SF-268 CNS
  TGI: > 100 µM
OVCAR-8 ovarian
  TGI: > 100 µM

## COc1ccccc1OCC(O)CO (stereo not given)
TK-10 renal
  GI50: > 100 µM
  TGI: > 100 µM
NCI-H460 lung
  GI50: > 100 µM
  TGI: > 100 µM
UO-31 renal
  GI50: > 100 µM
  TGI: > 100 µM
OVCAR-3 ovarian
  GI50: > 100 µM
  TGI: > 100 µM
RXF 393 renal
  GI50: > 100 µM
  TGI: > 100 µM
HOP-62 NSCLC
  GI50: > 100 µM
  TGI: > 100 µM
MOLT-4 leukemia
  GI50: > 100 µM
  TGI: > 100 µM
KM12 colon
  GI50: > 100 µM
  TGI: > 100 µM
SF-268 CNS
  GI50: > 100 µM
  TGI: > 100 µM
OVCAR-8 ovarian
  GI50: > 100 µM
  TGI: > 100 µM

## C=C(C)[C@@H]1CC[C@]2(C#N)CC[C@]3(C)[C@H](CC[C@@H]4[C@@]5(C)CCCNC(C)(C)[C@@H]5CC[C@]43C)[C@@H]12
TK-10 renal
  GI50: 2.04 µM
  TGI: 4.54 µM
NCI-H460 lung
  GI50: 1.88 µM
  TGI: 3.54 µM
UO-31 renal
  GI50: 2.41 µM
  TGI: 7.92 µM
OVCAR-3 ovarian
  GI50: 1.75 µM
  TGI: 3.38 µM
RXF 393 renal
  GI50: 1.7 µM
  TGI: 3.16 µM
HOP-62 NSCLC
  GI50: 1.65 µM
  TGI: 3.29 µM
MOLT-4 leukemia
  GI50: 2.14 µM
  TGI: 5.57 µM
KM12 colon
  GI50: 1.66 µM
  TGI: 3.23 µM
SF-268 CNS
  GI50: 3.11 µM
  TGI: 10.4 µM
OVCAR-8 ovarian
  GI50: 1.84 µM
  TGI: 3.38 µM
